Laboratory results taken from patent US5698411A, “Method for determining activity of enzymes in metabolically active whole cells” (priority 1995, dated 1997).
One block for each compound: values may come before it.

Columns and labels:
Assay type in all cases: cell-based, human
[1] = test system: monocytes; experiment: aberrant enzyme activities in febrile children, monocytes (Table 7)
[2] = test system: granulocytes; experiment: aberrant enzyme activities in febrile children, granulocytes (Table 7)
[3] = test system: lymphocytes; experiment: enzyme activity with fluorogenic substrate, normal lymphocytes (Table 3A)
[4] = test system: lymphocytes; experiment: aberrant enzyme activities in febrile children, lymphocytes (Table 7)
[5] = test system: metabolically active whole cell; experiment: substrate panel in normals and HIV + patients, TB infection (Table 4); design: unit not given here
Protocol: A panel of assay compounds are assembled consisting of Ala-aminopeptidase and Lys-aminopeptidase, Dipeptidyl peptidase IV (Ala-Ala)2 rhodamine 110 and Cathepsin D to indicate possible TB infection in AIDS related cases.
A panel Of enzymatic substrates is performed consisting of Ala-aminopeptidase and Lys-aminopeptidase, Dipeptidyl peptidase IV (Ala-Ala)2 rhodamine 110 and Cathepsin D to indicate possible TB infection in AIDS related cases.

[6] = test system: granulocytes; experiment: peptidase activity in leukemia and non-leukemia patients, granulocytes (Table 6C); design: unit not given here
[7] = test system: lymphocytes; experiment: peptidase activity in leukemia and non-leukemia patients, lymphocytes (Table 6C); design: unit not given here

- aberrant enzyme activity, MONOS ([1]; P88 Enteritis): .smallcircle.
- aberrant enzyme activity, MONOS ([1]; P89 Viral Stomatitis): .smallcircle.
- aberrant enzyme activity, MONOS ([1]; P92 Adenitis): .smallcircle.
- aberrant enzyme activity, MONOS ([1]; P97 Pyelonephritis): .smallcircle.
- aberrant enzyme activity, MONOS ([1]; P103 Viral Syndrome): .smallcircle.
- aberrant enzyme activity, GRANS ([2]; P88 Enteritis): .smallcircle.
- aberrant enzyme activity, GRANS ([2]; P89 Viral Stomatitis): .smallcircle.
- aberrant enzyme activity, GRANS ([2]; P92 Adenitis): .smallcircle.
- aberrant enzyme activity, GRANS ([2]; P97 Pyelonephritis): .smallcircle.
- aberrant enzyme activity, GRANS ([2]; P103 Viral Syndrome): .smallcircle.
- NORMAL LEUKOCYTE ENZYME ACTIVITY LYMPHS Mean [3]: 0.38
- aberrant enzyme activity, LYMPHS ([4]; P88 Enteritis): .smallcircle.
- aberrant enzyme activity, LYMPHS ([4]; P89 Viral Stomatitis): .smallcircle.
- aberrant enzyme activity, LYMPHS ([4]; P92 Adenitis): .smallcircle.
- aberrant enzyme activity, LYMPHS ([4]; P97 Pyelonephritis): .smallcircle.
- aberrant enzyme activity, LYMPHS ([4]; P103 Viral Syndrome): .smallcircle.
SMILES: O=C1OC2(c3ccc(OC4O[C@H](CO)[C@H](O)[C@H](O)[C@H]4O)cc3Oc3cc(OC4O[C@H](CO)[C@H](O)[C@H](O)[C@H]4O)ccc32)c2ccccc21 (stereo partly drawn) [GALAC, (D-galactose)2 fluorescein]

SMILES: O=C1OC2(c3ccc(NC(=O)[C@@H]4CCCN4)cc3Oc3cc(NC(=O)[C@@H]4CCCN4)ccc32)c2ccccc21 [PRO, (H-L-Pro)2 --Rho 110 .2TFA]
- MEAN DELTA FL ([5]; HIV + PATIENTS): 11.0
- MEAN DELTA FL ([5]; NORMALS): 11.4
- aberrant enzyme activity, MONOS ([1]; P92 Adenitis): .smallcircle.
- aberrant enzyme activity, MONOS ([1]; P97 Pyelonephritis): .smallcircle.
- aberrant enzyme activity, MONOS ([1]; P103 Viral Syndrome): .smallcircle.
- enzyme activity, Grans ([6]; J19 11/27/91 C L L): 5.50
- enzyme activity, Grans ([6]; N195 normal): 4.70
- enzyme activity, Grans ([6]; P69 pancreatic CA): 5.70
- enzyme activity, Grans ([6]; P70 cirrhosis/hemobilia): 0.66
- aberrant enzyme activity, GRANS ([2]; P92 Adenitis): .smallcircle.
- aberrant enzyme activity, GRANS ([2]; P97 Pyelonephritis): .smallcircle.
- aberrant enzyme activity, GRANS ([2]; P103 Viral Syndrome): .smallcircle.
- enzyme activity, Lymphs ([7]; J4 11/21/91 acute leuk.): 0.47
- enzyme activity, Lymphs ([7]; J4 12/2/91 A L): 0.29
- enzyme activity, Lymphs ([7]; J4 12/3/91 acute leuk.): 0.24
- enzyme activity, Lymphs ([7]; J5 11/27/91 A M L): 0.89
- enzyme activity, Lymphs ([7]; J19 11/27/91 C L L): 0.44
- enzyme activity, Lymphs ([7]; J22 12/2/91 A M L): 0.40
- enzyme activity, Lymphs ([7]; J22 12/9/91 A M L): 0.44
- enzyme activity, Lymphs ([7]; N191 normal): 0.69
- enzyme activity, Lymphs ([7]; N193 normal): 0.95
- enzyme activity, Lymphs ([7]; N194 normal): 0.86
- enzyme activity, Lymphs ([7]; N195 normal): 0.88
- enzyme activity, Lymphs ([7]; N197 normal): 0.57
- enzyme activity, Lymphs ([7]; N200 normal): 0.74
- enzyme activity, Lymphs ([7]; N201 normal): 1.10
- enzyme activity, Lymphs ([7]; N202 normal): 0.89
- enzyme activity, Lymphs ([7]; P68 tachycardia): 0.70
- enzyme activity, Lymphs ([7]; P69 pancreatic CA): 0.66
- enzyme activity, Lymphs ([7]; P70 cirrhosis/hemobilia): 0.56
- enzyme activity, Lymphs ([7]; P71 ac. pyelonephritis): 0.52
- aberrant enzyme activity, LYMPHS ([4]; P92 Adenitis): .smallcircle.
- aberrant enzyme activity, LYMPHS ([4]; P97 Pyelonephritis): .smallcircle.
- aberrant enzyme activity, LYMPHS ([4]; P103 Viral Syndrome): .smallcircle.

SMILES: C[C@H](NC(=O)[C@@H](N)CCCCN)C(=O)Nc1ccc2c(c1)Oc1cc(NC(=O)[C@H](C)NC(=O)[C@@H](N)CCCCN)ccc1C21OC(=O)c2ccccc21 [KA-M, (Lys-Ala)2 Rho 110]
- aberrant enzyme activity, MONOS ([1]; P88 Enteritis, listed as Lys/Ala-M): - (>0.25 Decrease over normal range)
- aberrant enzyme activity, MONOS ([1]; P89 Viral Stomatitis, listed as Lys/Ala-M): - (>0.25 Decrease over normal range)
- aberrant enzyme activity, MONOS ([1]; P92 Adenitis, listed as Lys/Ala-M): - (>0.25 Decrease over normal range)
- aberrant enzyme activity, MONOS ([1]; P95 Viral Syndrome, listed as Lys/Ala-M): - (>0.25 Decrease over normal range)
- aberrant enzyme activity, MONOS ([1]; P96 Viral Syndrome, listed as Lys/Ala-M): - (>0.25 Decrease over normal range)
- aberrant enzyme activity, MONOS ([1]; P97 Pyelonephritis, listed as Lys/Ala-M): - (>0.25 Decrease over normal range)
- aberrant enzyme activity, MONOS ([1]; P99 Viral Syndrome): .smallcircle.
- aberrant enzyme activity, MONOS ([1]; P102 UTI): .smallcircle.
- aberrant enzyme activity, MONOS ([1]; P103 Viral Syndrome, listed as Lys/Ala-M): - (>0.25 Decrease over normal range)
- aberrant enzyme activity, GRANS ([2]; P88 Enteritis): .smallcircle.
- aberrant enzyme activity, GRANS ([2]; P89 Viral Stomatitis): .smallcircle.
- aberrant enzyme activity, GRANS ([2]; P92 Adenitis): .smallcircle.
- aberrant enzyme activity, GRANS ([2]; P95 Viral Syndrome): .smallcircle.
- aberrant enzyme activity, GRANS ([2]; P96 Viral Syndrome): .smallcircle.
- aberrant enzyme activity, GRANS ([2]; P97 Pyelonephritis): .smallcircle.
- aberrant enzyme activity, GRANS ([2]; P99 Viral Syndrome): .smallcircle.
- aberrant enzyme activity, GRANS ([2]; P102 UTI): .smallcircle.
- aberrant enzyme activity, GRANS ([2]; P103 Viral Syndrome): .smallcircle.
- NORMAL LEUKOCYTE ENZYME ACTIVITY LYMPHS Mean [3]: 0.55
- aberrant enzyme activity, LYMPHS ([4]; P88 Enteritis): .smallcircle.
- aberrant enzyme activity, LYMPHS ([4]; P89 Viral Stomatitis): .smallcircle.
- aberrant enzyme activity, LYMPHS ([4]; P92 Adenitis): .smallcircle.
- aberrant enzyme activity, LYMPHS ([4]; P95 Viral Syndrome): .smallcircle.
- aberrant enzyme activity, LYMPHS ([4]; P96 Viral Syndrome): .smallcircle.
- aberrant enzyme activity, LYMPHS ([4]; P97 Pyelonephritis): .smallcircle.
- aberrant enzyme activity, LYMPHS ([4]; P99 Viral Syndrome, listed as Lys/Ala-M): + (>0.25 Increase over normal range)
- aberrant enzyme activity, LYMPHS ([4]; P102 UTI): .smallcircle.
- aberrant enzyme activity, LYMPHS ([4]; P103 Viral Syndrome): .smallcircle.
